Holding throughout (type): in vivo
Test [1] relates to AMARE = redroot pigweed (Amaranthus retroflexus). In words: Postemergence herbicidal activity, redroot pigweed. To be noted: post-emergence, 336 h, post-emergent, rate 140 g ai/ha, visual score after 14 days (0 no injury, 100 complete kill), read-out: % Growth Reduction AMARE. As to the method: (§1) Evaluation of Postemergence Herbicidal Activity
(§2) Seeds or nutlets of the desired test plant species were planted in Sun Gro MetroMix® 306 planting mixture, which typically has a pH of 6.0 to 6.8 and an organic matter content of about 30 percent, in plastic pots with a surface area of 64 square centimeters. When required to ensure good germination and healthy plants, a fungicide treatment and/or other chemical or physical treatment was applied. The plants were grown for 7-21 days in a greenhouse with an approximate 15 hour photoperiod which was maintained at about 23-29° C. during the day and 22-28° C. during the night. Nutrients and water were added on a regular basis and supplemental lighting was provided with overhead metal halide 1000-Watt lamps as necessary. The plants were employed for testing when they reached the first or second true leaf stage.
(§3) A weighed amount, determined by the highest rate to be tested, of each test compound was placed in a 25 mL glass vial and was dissolved in 4 mL of a 97:3 v/v (volume/volume) mixture of acetone and dimethyl sulfoxide (DMSO) to obtain concentrated stock solutions. […] The concentrated stock solutions obtained were diluted with 20 mL of an aqueous mixture containing acetone, water, isopropyl alcohol, DMSO, Atplus 411F crop oil concentrate, and Triton® X-155 surfactant in a 48.5:39:10:1.5:1.0:0.02 v/v ratio to obtain spray solutions containing the highest application rates. Additional application rates were obtained by serial dilution of 12 mL of the high rate solution into a solution containing 2 mL of 97:3 (v/v) mixture of acetone and dimethyl sulfoxide (DMSO) and 10 mL of an aqueous mixture containing acetone, water, isopropyl alcohol, DMSO, Atplus 411F crop oil concentrate, and Triton X-155 surfactant in a 48.5:39:10:1.5:1.0:0.02 (v/v) ratio to obtain 1/2 ×, 1/4 ×, 1/8× and 1/16× rates of the high rate. Compound requirements are based upon a 12 mL application volume at a rate of 187 L/ha. Formulated compounds were applied to the plant material with an overhead Mandel track sprayer equipped with a 8002E nozzles calibrated to deliver 187 L/ha over an application area of 0.503 square meters at a spray height of 18 inches (43 cm) above the average plant canopy height. Control plants were sprayed in the same manner with the solvent blank.
(§4) The treated plants and control plants were placed in a greenhouse as described above and watered by sub-irrigation to prevent wash-off of the test compounds. After 14 days, the condition of the test plants as compared with that of the untreated plants was determined visually and scored on a scale of 0 to 100 percent where 0 corresponds to no injury and 100 corresponds to complete kill
(§5) By applying the well-accepted probit analysis as described by J. Berkson in Journal of the […], 48, 565 (1953) and by D. Finney in “Probit Analysis” Cambridge University Press (1952), the above data can be used to calculate GR50 and GR80 values, which are defined as growth reduction factors that correspond to the effective dose of herbicide required to kill or control 50 percent or 80 percent, respectively, of a target plant.

The test system of test [2] is CHEAL = lambsquarters (Chenopodium album). Description: Postemergence herbicidal activity, lambsquarters. Conditions: post-emergence, 336 h, post-emergent, visual score after 14 days (0 no injury, 100 complete kill), read-out: % Growth Reduction CHEAL; for pest or weed control at 140 g/ha: rate 140 g ai/ha; for pest or weed control at 280 g/ha: rate 280 g ai/ha. As to the method:
as §1, §2, §3, §4, §5

Test [3] deals with EPHHL = wild poinsettia (Euphorbia heterophylla). In words: Postemergence herbicidal activity, wild poinsettia. Conditions: post-emergence, 336 h, post-emergent, visual score after 14 days (0 no injury, 100 complete kill), read-out: % Growth Reduction EPHHL; for pest or weed control at 140 g/ha: rate 140 g ai/ha; for pest or weed control at 280 g/ha: rate 280 g ai/ha. As to the method:
as §1, §2, §3, §4, §5

Test [4] concerns ECHCG = barnyardgrass (Echinochloa crus-galli). In words: Postemergence herbicidal activity, barnyardgrass. Conditions: post-emergence, 336 h, post-emergent, visual score after 14 days (0 no injury, 100 complete kill), read-out: % Growth Reduction ECHCG; for pest or weed control at 140 g/ha: rate 140 g ai/ha; for pest or weed control at 280 g/ha: rate 280 g ai/ha. Here is the method: as §1, §2, §3, §4, §5

Test [5] has as its system HELAN = sunflower (Helianthus annuus). Description: Postemergence herbicidal activity, sunflower. To be noted: post-emergence, 336 h, post-emergent, visual score after 14 days (0 no injury, 100 complete kill), read-out: % Growth Reduction HELAN; for pest or weed control at 140 g/ha: rate 140 g ai/ha; for pest or weed control at 280 g/ha: rate 280 g ai/ha. Here is the method:
as §1, §2, §3, §4, §5

Test [6] deals with ABUTH = velvetleaf (Abutilon theophrasti). Description: Postemergence herbicidal activity, velvetleaf. Conditions: post-emergence, 336 h, post-emergent, visual score after 14 days (0 no injury, 100 complete kill), read-out: % Growth Reduction ABUTH; for pest or weed control at 140 g/ha: rate 140 g ai/ha; for pest or weed control at 280 g/ha: rate 280 g ai/ha. As to the method:
as §1, §2, §3, §4, §5

The subject of test [7] is IPOHE = ivyleaf morningglory (Ipomoea hederacea). In words: Postemergence herbicidal activity, ivyleaf morningglory. To be noted: post-emergence, 336 h, post-emergent, visual score after 14 days (0 no injury, 100 complete kill), read-out: % Growth Reduction IPOHE; for pest or weed control at 140 g/ha: rate 140 g ai/ha; for pest or weed control at 280 g/ha: rate 280 g ai/ha. Here is the method: as §1, §2, §3, §4, §5

Molecules are shown by their SMILES.

As to `COC(=O)c1nc(-c2ccc(Cl)c(F)c2F)nc(N)c1/C=C/[Si](C)(C)C` [Compound 1, (E)-methyl 6-amino-2-(4-chloro-2,3-difluorophenyl)-5-(2-(trimethylsilyl)vinyl)pyrimidine-4-carboxylate], the pest or weed control at 140 g/ha in test [1] came to 100%; in test [2], 100%; in test [3] it was 50%; in test [4], 85%; in test [5], 90%; in test [6], 100%. Moreover, the pest or weed control at 140 g/ha in test [7] is 80%.
Regarding `COC(=O)c1nc(-c2ccc(Cl)cc2F)nc(N)c1/C=C/[Si](C)(C)C` [Compound 3, (E)-methyl 6-amino-2-(4-chloro-2-fluorophenyl)-5-(2-(trimethylsilyl)vinyl)pyrimidine-4-carboxylate], the pest or weed control at 140 g/ha was determined as 100% in test [1]; 100% in test [2]; 100% in test [3]; 0% in test [4]; 90% in test [5]; 100% in test [6]. Further, the pest or weed control at 140 g/ha in test [7] is 70%.
As for `CCOC(=O)c1nc(C2CC2)nc(N)c1/C=C/[Si](C)(C)C` [Compound 4, (E)-ethyl 6-amino-2-cyclopropyl-5-(2-(trimethylsilyl)vinyl)pyrimidine-4-carboxylate], the pest or weed control at 140 g/ha in test [2] is 100%; in test [3] it was 100%; in test [4], 0%; in test [5], 0%; in test [6], 0%; in test [7] it was 100%.
With `C[Si](C)(C)/C=C/c1c(N)nc(-c2ccc(Cl)c(F)c2F)nc1C(=O)O` [Compound 5, (E)-6-amino-2-(4-chloro-2,3-difluorophenyl)-5-(2-(trimethylsilyl)vinyl)pyrimidine-4-carboxylic acid], the pest or weed control at 140 g/ha in test [1] was 90%; in test [2], 100%; in test [3] it was 100%; in test [4] it was 50%; in test [5] it was 90%; in test [6], 100%. For the same compound, in test [7], the pest or weed control at 140 g/ha worked out at 60%.
With `C[Si](C)(C)/C=C/c1c(N)nc(-c2ccc(Cl)cc2F)nc1C(=O)O` [Compound 7, (E)-6-amino-2-(4-chloro-2-fluorophenyl)-5-(2-(trimethylsilyl)vinyl)pyrimidine-4-carboxylic acid], the pest or weed control at 140 g/ha in test [1] was determined as 100%; in test [2], 100%; in test [3], 100%; in test [4], 80%; in test [5] it was 90%; in test [6], 100%. The pest or weed control at 140 g/ha in test [7] is 70%.
Turning to `C[Si](C)(C)/C=C/c1c(N)nc(C2CC2)nc1C(=O)O` [Compound 8, (E)-6-amino-2-cyclopropyl-5-(2-(trimethylsilyl)vinyl)pyrimidine-4-carboxylic acid], the pest or weed control at 280 g/ha in test [2] amounted to 65%; in test [3], 100%; in test [4], 0%; in test [5], 65%; in test [6], 0%; in test [7], 78%.
As for `CCO[Si](/C=C/c1c(N)nc(-c2ccc(Cl)c(OC)c2F)nc1C(=O)OC)(OCC)OCC` [Compound 9, (E)-methyl 6-amino-2-(4-chloro-2-fluoro-3-methoxyphenyl)-5-(2-(triethoxysilyl)vinyl)pyrimidine-4-carboxylate], the pest or weed control at 140 g/ha in test [2] amounted to 100%; in test [3], 100%; in test [4] it was 80%; in test [5] it was 90%; in test [6], 100%; in test [7], 80%.
For the compound `COc1c(Cl)ccc(-c2nc(N)c(/C=C/[Si](O)(O)O)c(C(=O)O)n2)c1F` [Compound 10, (E)-6-amino-2-(4-chloro-2-fluoro-3-methoxyphenyl)-5-(2-(trihydroxysilyl)vinyl)pyrimidine-4-carboxylic acid], the pest or weed control at 140 g/ha in test [2] came to 100%; in test [3], 100%; in test [4], 80%; in test [5], 100%; in test [6], 100%; in test [7], 80%.
Regarding `COC(=O)c1nc(-c2ccc(Cl)c(F)c2)c(F)c(N)c1/C=C/[Si](C)(C)C` [Compound 11, (E)-methyl 4-amino-6-(4-chloro-3-fluorophenyl)-5-fluoro-3-(2-(trimethylsilyl)vinyl)picolinate], the pest or weed control at 140 g/ha came to 100% in test [1]; 100% in test [2]; 80% in test [3]; 0% in test [4]; 90% in test [5]; 80% in test [6]. The pest or weed control at 140 g/ha in test [7] stood at 70%.
Take `C[Si](C)(C)/C=C/c1c(C(=O)O)nc(-c2ccc(Cl)c(F)c2)c(F)c1N` [Compound 14, (E)-4-amino-6-(4-chloro-3-fluorophenyl)-5-fluoro-3-(2-(trimethylsilyl)vinyl)picolinic acid]: the pest or weed control at 140 g/ha is 100% in test [2]; 100% in test [3]; 70% in test [4]; 80% in test [5]; 65% in test [6]; 80% in test [7].
With `CCc1nc(C(=O)O)c(/C=C/[Si](C)(C)C)c(N)c1F` [Compound 16, (E)-4-amino-6-ethyl-5-fluoro-3-(2-(trimethylsilyl)vinyl)picolinic acid], the pest or weed control at 280 g/ha in test [2] is 10%; in test [3] it was 0%; in test [4] it was 0%; in test [5] it was 20%; in test [6] it was 5%; in test [7], 60%.

Source of the values: patent publication US8658568B2, “6-amino-2-substituted-5-vinylsilylpyrimidine-4-carboxylic acids and esters and 4-amino-6-substituted-3-vinylsilylpyridine-2-carboxylic acids and esters as herbicides” (Dow AgroSciences, LLC., priority 2011, dated 2014).
